Patent publication US6972298B2, “Method of treating or inhibiting neutrophil chemotaxis by administering a MEK inhibitor” (Warner-Lambert Company, priority 2001, dated 2005)
Entries after “also recorded” stand apart in the source; their conditions may differ. Where two headings read alike, the source gives them in different places.

How the values were obtained:
PMNs = experiment: cytotoxicity on the PMNs; details: higher concentrations of the drug
[1] = system: IL-8-stimulated neutrophil chemotaxis; experiment: In vitro neutrophil chemotaxis, IL-8, transwell chamber assay; format: cell-based, human; details: for inhibition at 0.01 µM: read-out: inhibition of chemotaxis at 0.01 μM, 0.01 μM inhibitor alone; for IC50: 3.125 nM IL-8, 3 hours
Method: Subsequently, the cells were stimulated with 3.125 nM of IL-8 for a period of 3 hours at which time the migrated cells were quantified using a cell sorter as described elsewhere. Percent inhibition was calculated based on the differences in the number of migrated cells compared to IL-8 alone controls.
The migrated cells were quantitated as described, and the percent inhibition was represented.
Number of cells migrated was measured 3 hours after IL-8 stimulation and expressed as percent control. Each value represents the average ±S.E. obtained from at least three different donors with duplicates in each set.
(§1) Polymorphonuclear leukocytes (PMNs) were isolated from whole blood obtained from healthy human donors. Plasma was separated from the remainder of the blood using a Dextran density gradient. Red blood cells (RBCs) and PMNs were further isolated by centrifugation at 2500 rpm for 15 minutes, using a Lymphoprep sedimentation solution. RBCs were lysed with 0.2% NaCl, neutralized with 1.8% NaCl, and the remaining neutrophils were resuspended in RPMI binding buffer at a final concentration of 10 million cells/mL.
The neutrophil chemotaxis assay was conducted with 1 million cells per well in […] polycarbonate membrane transwell plates (Corning-Costar, Cambridge, Mass.). The various inhibitors were prepared as 1 or 10 mM stock solutions in dimethyl sulphoxide (DMSO). Inhibitor dilutions were prepared in RPMI binding buffer, maintaining a constant final concentration of DMSO in all conditions. Neutrophils were preincubated with the respective inhibitor in the top well of the plate for 30 minutes at room temperature prior to exposure to IL-8. An equivalent concentration of the respective inhibitor was placed in the bottom well to prevent any concentration gradient. DMSO concentration was maintained in all wells as a vehicle control. […] Neutrophils that migrated completely across the 3-μM filter were quantitated using FACS analysis with appropriate forward and sideward scatter. Percentage inhibition relative to the positive control (IL-8 alone) was calculated for each condition after subtracting the blank reading (no IL-8).

[2] = system: IL-8-induced neutrophil recruitment to the skin; experiment: IL-8 skin recruitment model (in vivo rabbit neutrophil recruitment assay)
Method: Three hours after the last dose, animals were injected with ^125I IL-8 (10μCi), and 10 minutes later various doses of cold (unlabeled) IL-8 was injected intradermally at local sites on the back of the rabbits. Sixty minutes later, the animals were sacrificed, punch biopsies were performed, and the radiation in the skin was measured using a gamma counter. Each value represents the average±standard deviation error of three representative experiments with three animals in each group and triplicates within each treatment. The asterisk indicates significant (p<0.05) differences between the respective treatments in control animals versus drug-administered animals. […]
In control rabbits, the vehicle was administered. […] The biopsies were weighed and sample-associated radioactivity was determined using a gamma counter (Packard Model #05005, Downers Grove, Ill.).
In each experiment, triplicate samples were obtained for each experimental condition. In studies where IL-8 was not tested or the highest 1-μg dose of IL-8 was not used, the data is expressed as either raw counts or adjusted counts. […] In dose-response studies where the 1-μg dose of IL-8 was used, the weight-normalization background (vehicle-treated skin) was subtracted from weight-normalized treated samples, and the data was then expressed as a percent maximal response to the 1-μg dose of IL-8. […]

[3] = in vivo; cited from earlier work
MEK1/2 = experiment: kinase assays of MEK1/2 activity in response to IL-8; format: cell-based, human; details: pre-treatment with inhibitor
Method: (§2) The role of PI3K in IL-8 activation of ERK has been controversial. […] In parallel, kinase assays were performed to examine the MEK1/2 activity in response to IL-8.

IL-8 activation of ERK = IL-8 activation of ERK in human PMNs, Western blot with phospho-specific ERK antibody; format: cell-based; details: for inhibition of IL-8 activation of ERK at 0.1 μM: 0.1 μM inhibitor
Method: Activation of MAPK was examined by phospho-specific ERK antibody in isolated human PMNs that were stimulated with 3 nM of IL-8 for various periods of time (A). […] The effect of the inhibitors was monitored by measuring p-ERK activity by Western blotting. The blots were normalized using the ERK antibody.
as §1
Neutrophils were preincubated with the respective inhibitor for 30 minutes at room temperature in 1.5-mL microfuge tubes prior to addition of IL-8 (3.125 nM). […] Thus, neutrophils were exposed to IL-8 for 5 minutes at room temperature, after which whole cell lysates were obtained via lysis with RIPA buffer and analyzed by Western blot analysis using phospho specific antibodies, p44/42 MAP (ERK) and p38 MAPK kinase. Standard Western blotting was performed using chemiluminescence. All blots were normalized with the respective nonphosphorylated antibodies.
To confirm IL-8 activation of ERK, neutrophils were stimulated with 3 nM of IL-8 for various periods of time, ranging from 0 to 30 minutes (FIG. 1A).
as §2

colon cancer cells = details: read-out: IC50, decrease of endogenous constitutive MAPK activation or growth in soft agar; cited from earlier work
oral bioavailability = details: in vivo
IL-8-induced chemotaxis = details: cited from earlier work

## COC[C@H]1OC(=O)c2coc3c2[C@@]1(C)C1=C(C3=O)[C@@H]2CCC(=O)[C@@]2(C)C[C@H]1OC(C)=O [Wortmannin, reference compound]
PMNs
  cytotoxicity effects on the PMNs: No visible cytotoxicity effects
[1]; 0.01 μM inhibitor alone, 0.01 µM
  inhibition of chemotaxis at 0.01 μM: 28%
[1]; Homo sapiens, Neutrophil, read-out: inhibition of chemotaxis at 0.001 μM, 0.001 μM inhibitor, 3.125 nM IL-8
  inhibition at 0.001 µM: 25 to 30%
[1]; Homo sapiens, Neutrophil
  inhibition at 0.01 µM: ~30%
  IC50: 0.02 µM
[1]; Homo sapiens, Neutrophil, read-out: inhibition of chemotaxis at 1 μM, 1 μM inhibitor, 3.125 nM IL-8
  inhibition at 1 µM: 100%

## O=C(NOCC1CC1)c1ccc(F)c(F)c1Nc1ccc(I)cc1Cl [2-(2-chloro-4-iodo-phenylamino)-N-cyclopropylmethoxy-3,4-difluoro-benzamide]
[2]; 30 mg/kg PO three times at 8 hour intervals, higher IL-8 concentrations tested
  decrease of IL-8-induced neutrophil recruitment in vivo: ~50%
[2]; 30 mg/kg PO three times, all IL-8 concentrations tested
  number of neutrophils recruited to the skin: consistently decreased
[3]
  bioavailability, as recently described: bioavailable
MEK1/2
  inhibition of IL-8 activation of MEK1/2: inhibited
[1]; 0.001 μM inhibitor, 3.125 nM IL-8
  inhibition of chemotaxis at 0.001 μM: minimal inhibition
[1]; Homo sapiens, Neutrophil, read-out: inhibition of chemotaxis at 0.1 nM IL-8, 0.1 μM inhibitor, 0.1 nM IL-8
  inhibition at 0.1 µM: ~80%
[1]; Homo sapiens, Neutrophil
  inhibition at 0.01 µM: ~50%
  IC50: 0.14 µM
[1]; Homo sapiens, Neutrophil, read-out: inhibition of chemotaxis at 100 nM IL-8, 0.1 μM inhibitor, 100 nM IL-8
  inhibition at 0.1 µM: ~30%
[1]; maximal block, single agent
  maximal inhibition of IL-8-induced chemotaxis, compound alone: 60%
IL-8 activation of ERK; 0.01 μM inhibitor
  effect on IL-8-induced ERK activation at 0.01 μM: blocks ERK activation completely
IL-8 activation of ERK
  inhibition of IL-8 activation of ERK at 0.1 μM: almost completely blocks; also recorded: completely inhibited
IL-8 activation of ERK; listed as 2-(2-Chloro-4-iodo-phenylamino)-N-cyclopropylmethoxy-3,4-difluoro-benzamide
  inhibition of IL-8 activation of ERK at 0.1 μM: almost completely blocked
IL-8 activation of ERK; inhibitor 0 to 100 μM for 30 minutes, then IL-8 for 5 minutes
  inhibition of IL-8 activation of ERK: dose dependent inhibition; also recorded: clearly blocked
Colon cancer cells
  IC50: 0.15 µM

## COc1cccc(-c2cc(=O)c3ccccc3o2)c1N [2-(2-amino-3-methoxy-phenyl)-chromen-4-one]
Oral bioavailability
  oral bioavailability: orally nonbioavailable
IL-8-induced chemotaxis
  inhibition of IL-8-induced chemotaxis in previous studies: lack of inhibition
